Reference: ChEMBL document CHEMBL2429722, “Synthesis of the non-peptidic snail toxin 6-bromo-2-mercaptotryptamine dimer (BrMT)(2), its lower and higher thio homologs and their ability to modulate potassium ion channels” (Bioorg Med Chem Lett, 2013)

Key:
Assay type in all cases: cell-based
Details in all cases: Oocyte
[1] = target: Potassium voltage-gated channel subfamily A member 1 (Mus musculus) (UniProt P16388); assay: Inhibition of mouse Kv1.1 channel expressed in Xenopus laevis oocytes assessed as decrease in +60 mV current-induced time constant of activation at 20 uM after 2 mins by two-electrode voltage clamp assay relative to control
[2] = target: Potassium voltage-gated channel subfamily A member 1 (Mus musculus) (UniProt P16388); assay: Inhibition of mouse Kv1.1 channel expressed in Xenopus laevis oocytes assessed as reduction of current amplitude at 20 uM after 2 mins by two-electrode voltage clamp assay relative to control
[3] = target: Potassium voltage-gated channel subfamily A member 1 (Mus musculus) (UniProt P16388); assay: Inhibition of mouse Kv1.1 channel expressed in Xenopus laevis oocytes assessed as -50 mV current-induced channel closing time at 20 uM after 2 mins by two-electrode voltage clamp assay (reference value: 14.6 +/- 0.3 ms)
[4] = target: Potassium voltage-gated channel subfamily A member 1 (Mus musculus) (UniProt P16388); assay: Inhibition of mouse Kv1.1 channel expressed in Xenopus laevis oocytes assessed as -50 mV current-induced channel closing time at 15 uM after 2 mins by two-electrode voltage clamp assay (reference value: 14.6 +/- 0.3 ms)
[5] = target: Potassium voltage-gated channel subfamily A member 1 (Mus musculus) (UniProt P16388); assay: Inhibition of mouse Kv1.1 channel expressed in Xenopus laevis oocytes assessed as decrease in +60 mV current-induced time constant of activation at 8 uM after 2 mins by two-electrode voltage clamp assay relative to control
[6] = target: Potassium voltage-gated channel subfamily A member 1 (Mus musculus) (UniProt P16388); assay: Inhibition of mouse Kv1.1 channel expressed in Xenopus laevis oocytes assessed as reduction of current amplitude at 15 uM after 2 mins by two-electrode voltage clamp assay relative to control
[7] = target: Potassium voltage-gated channel subfamily A member 1 (Mus musculus) (UniProt P16388); assay: Inhibition of mouse Kv1.1 channel expressed in Xenopus laevis oocytes assessed as decrease in +60 mV current-induced time constant of activation at 15 uM after 2 mins by two-electrode voltage clamp assay relative to control
[8] = target: Potassium voltage-gated channel subfamily A member 1 (Mus musculus) (UniProt P16388); assay: Inhibition of mouse Kv1.1 channel expressed in Xenopus laevis oocytes assessed as -50 mV current-induced channel closing time at 8 uM after 2 mins by two-electrode voltage clamp assay (reference value: 14.6 +/- 0.3 ms)
[9] = target: Potassium voltage-gated channel subfamily A member 1 (Mus musculus) (UniProt P16388); assay: Inhibition of mouse Kv1.1 channel expressed in Xenopus laevis oocytes assessed as reduction of current amplitude at 8 uM after 2 mins by two-electrode voltage clamp assay relative to control

Sequence of Potassium voltage-gated channel subfamily A member 1 (Mus musculus) (P16388 whole entry): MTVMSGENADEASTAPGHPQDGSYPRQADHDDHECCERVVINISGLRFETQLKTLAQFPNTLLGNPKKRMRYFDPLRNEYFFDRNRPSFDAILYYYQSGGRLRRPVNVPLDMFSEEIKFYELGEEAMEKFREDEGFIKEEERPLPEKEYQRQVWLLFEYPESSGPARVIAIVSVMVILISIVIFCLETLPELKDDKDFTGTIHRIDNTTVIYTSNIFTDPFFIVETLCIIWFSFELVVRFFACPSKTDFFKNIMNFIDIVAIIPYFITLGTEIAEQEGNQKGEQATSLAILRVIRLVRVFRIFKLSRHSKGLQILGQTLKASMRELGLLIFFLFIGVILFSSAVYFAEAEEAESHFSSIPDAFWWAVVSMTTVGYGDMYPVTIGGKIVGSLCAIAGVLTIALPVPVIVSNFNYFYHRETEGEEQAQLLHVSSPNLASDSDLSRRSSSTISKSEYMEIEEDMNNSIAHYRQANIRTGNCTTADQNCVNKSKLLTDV

| fold change (FC) [1] | fold change (FC) [2] | TIME [3] [h] | Compound | TIME [4] [h] | fold change (FC) [5] | fold change (FC) [6] | fold change (FC) [7] | TIME [8] [h] | inhibition [9] [%] |
| --- | --- | --- | --- | --- | --- | --- | --- | --- | --- |
| 5 | 0.59 | 9.28e-06 | NCCc1c(Sc2[nH]c3cc(Br)ccc3c2CCN)[nH]c2cc(Br)ccc12 |  |  |  |  |  |  |
|  |  |  | NCCc1c(SSc2[nH]c3cc(Br)ccc3c2CCN)[nH]c2cc(Br)ccc12 | 3.81e-06 | 3 | 0.69 | 5 | 4.94e-06 | 15 |
|  |  |  | NCCc1c(SSSc2[nH]c3cc(Br)ccc3c2CCN)[nH]c2cc(Br)ccc12 |  | 3 |  |  | 4.06e-06 | 35 |
